The subject of one data set is SK-BR-3. The data set is described as follows: Inhibition of proliferation of SK-BR-3 cells by compounds (CellTiter-Glo, 72 h). In kind it is cell-based. Conditions: SK-BR-3, 72 h incubation. The protocol:
3: Test method (1) Cell plating: first, tumor cells SK-BR-3 were cultured using a corresponding culture medium, trypsinized, centrifuged, resuspended for counting, adjusted to an appropriate concentration, and then plated on a 384-well plate. (2) Co-incubation of the compounds and tumor cells: after the cells adhered to the wall, 100 nL of a diluted bioactive substance (test compound) was added to the cell culture plate using ECHO, the final concentration of DMSO in wells of the cell plate was 0.33%, and the incubation was performed in an incubator at 37°C with 5% CO2 for 72 h. (3) After the incubation was complete, 30 µL of a CTG reagent (CelltiterGlo kit) was added to each well. The culture was oscillated on a fast oscillator for 2 min, centrifuged at 1,000 rpm for 1 min, and kept away from light at room temperature for 30 min. The chemiluminescence signal value was read using an Envision instrument. (4) Cell viability detection: IC50 was calculated using GraphPad Prism 8 software, and the IC50 of the compounds was obtained using the following nonlinear fitting formula (see Table 1) : 1. Y=Bottom+(Top-Bottom)/(1+10^((LogIC50-X)*HillSlope)) 2. […] Table 1 Antiproliferative activity of test compounds on SK-BR-3
(In general: Cellular ATP, detected with luciferase, serves as a proxy for viable cell number.)

The subject of the next data set is MDA-MB-468. Nature of the data set: Inhibition of proliferation of MDA-MB-468 cells by test compounds (CellTiter-Glo, 72 h). In kind it is cell-based. The settings on record: MDA-MB-468, 72 h incubation. The protocol:
3: Test method • (1) Cell plating: first, tumor cells MDA-MB-468 were cultured using a corresponding culture medium, trypsinized, centrifuged, resuspended for counting, adjusted to an appropriate concentration, and then plated on a 384-well plate. • (2) Co-incubation of the compounds and tumor cells: after the cells adhered to the wall, 100 nL of a diluted bioactive substance (test compound) was added to the cell culture plate using ECHO, the final concentration of DMSO in wells of the cell plate was 0.33%, and the incubation was performed in an incubator at 37°C with […] for 72 h. • (3) After the incubation was complete, 30 µL of a CTG reagent (CelltiterGlo kit) was added to each well. The culture was oscillated on a fast oscillator for 2 min, centrifuged at 1,000 rpm for 1 min, and kept away from light at room temperature for 30 min. The chemiluminescence signal value was read using an Envision instrument. • (4) Cell viability detection: IC50 was calculated using GraphPad Prism 8 software, and the IC50 of the compounds was obtained using the following nonlinear fitting formula (see Table 2): • 6. Y=Bottom+(Top-Bottom)/(1+10^((LogIC50-X)*HillSlope)) • 7. […] Table 2 Antiproliferative activity of test compounds on MDA-MB-468

Another data set deals with NCI-N87. Nature of the data set: Inhibition of proliferation of NCI-N87 cells by test compounds (CellTiter-Glo, 72 h). Conditions: NCI-N87, 72 h incubation. The data set is classed as cell-based. How it is done:
3: Test method (1) Cell plating: first, tumor cells NCI-N87 were cultured using a corresponding culture medium, trypsinized, centrifuged, resuspended for counting, adjusted to an appropriate concentration, and then plated on a 384-well plate. (2) Co-incubation of the compounds and tumor cells: after the cells adhered to the wall, 100 nL of a diluted bioactive substance (test compound) was added to the cell culture plate using ECHO, the final concentration of DMSO in wells of the cell plate was 0.33%, and the incubation was performed in an incubator at 37°C with […] for 72 h. (3) After the incubation was complete, 30 µL of a CTG reagent (CelltiterGlo kit) was added to each well. The culture was oscillated on a fast oscillator for 2 min, centrifuged at 1,000 rpm for 1 min, and kept away from light at room temperature for 30 min. The chemiluminescence signal value was read using an Envision instrument. (4) Cell viability detection: IC50 was calculated using GraphPad Prism 8 software, and the IC50 of the compounds was obtained using the following nonlinear fitting formula (see Table 3) : 11. Y=Bottom+(Top-Bottom)/(1+10^((LogIC50-X)*HillSlope)) 12. […] Table 3 Antiproliferative activity of test compounds on cells NCI-N87

Data set [1] can be described thus: Stability of compounds in human plasma. In kind it is in vitro ADME. The settings on record: 37°C, 5 µmol/L; for Residual percentage (%): 0 h; for remaining at 1 h, 5 µM / remaining at 2 h, 5 µM / remaining at 6 h, 5 µM / remaining at 24 h, 5 µM: read-out: Residual percentage (%). How it is done: • (1) 199 µL of human plasma was added to the culture plate of each cell. The culture plate was preheated to 37°C, and kept at this temperature for 15 min. • (2) After preincubation, 1 µL of 1 mmol/L each test compound and 1 µL of 1 mmol/L control compound were added to 199 µL of plasma, so that a final concentration of each test compound was 5 µmol/L and that of the control compound was 5 µmol/L. The final concentration of the organic solvent was 0.5%. The experiment would be duplicated twice. • (3) Reaction samples were incubated at 37°C. • (4) The reaction was stopped by adding 600 µL of cold methanol containing the internal standard at 0, 1, 2, 6, and 24 h. Each sample was vortex mixed for 10 min, and then centrifuged at 3,220 g for 30 min to precipitate the protein. […] Based on the signal response and peak shapes of liquid chromatography-mass spectrometry (LC-MS), the supernatant would be diluted with ultrapure water.
All calculations were performed using Microsoft Excel. The peak area ratio was determined from the chromatogram of extracted ions. The percentage of compounds remaining at each time point was calculated as per the following formula: Residual percentagetmin (%) = peak area ratiotmin /peak areat0 × 100 [formula]

Data set [2] can be described thus: Stability of compounds in human plasma. In kind it is in vitro ADME. Conditions: 37°C, 5 µmol/L, read-out: Residual percentage (%).

As usually defined, the IC50 is the concentration that inhibits the measured activity by half. Consider `CC[C@@]1(O)C(=O)OCc2c1cc1n(c2=O)Cc2c-1nc1cc(F)c(C)c3c1c2C(NC(=O)C[C@@H](C)O)CCC3` (single isomer, unassigned) [6-2], for which the IC50 in the data set with SK-BR-3 (Homo sapiens, SK-BR-3, 72 h) was 7.3 nM. The molecule further had an IC50 in the data set on MDA-MB-468 (Homo sapiens, MDA-MB-468, 72 h) of 6.5 nM. The molecule further yielded an IC50 in the data set with NCI-N87 (Homo sapiens, NCI-N87, 72 h) of 6.8 nM. Further, in data set [1], the “Residual percentage (%)” value came out at 100.00%; the remaining at 1 h, 5 µM was found to be 96.6%; the remaining at 2 h, 5 µM worked out at 86.2%; the remaining at 6 h, 5 µM worked out at 89%. In addition, the remaining at 24 h, 5 µM in data set [1] came to 87%. In addition, in data set [2], the remaining at 4 h, 5 µM worked out at 93.7%.
Molecule `CC[C@@]1(O)C(=O)OCc2c1cc1n(c2=O)Cc2c-1nc1cc(F)c(C3CC3)c3c1c2C(NC(=O)C[C@@H](C)O)CC3` (single isomer, unassigned) [17-2] came in with an IC50 with SK-BR-3 of 6.6 nM. Further, half-maximal inhibition in the data set with MDA-MB-468 (IC50) was put at 8.1 nM. This molecule also registered an IC50 in the data set with NCI-N87 of 5.3 nM. Also, in data set [1], the “Residual percentage (%)” value came to 100.00%; the remaining at 1 h, 5 µM was 90.1%; the remaining at 2 h, 5 µM is 89.3%; the remaining at 6 h, 5 µM stood at 97.1%. Also, the remaining at 24 h, 5 µM in data set [1] was 102%. Moreover, the remaining at 4 h, 5 µM in data set [2] is 93.8%.
As to `CC[C@@]1(O)C(=O)OCc2c1cc1n(c2=O)Cc2c-1nc1cc(F)c(C)c3c1c2[C@@H](NC(=O)[C@@H](O)C1CC1)CCC3` [11-2, (S)-2-cyclopropyl-N-((1S,10S)-10-ethyl-6-fluoro-10-hydroxy-5-methyl-11,14-dioxo-1,2,3,4,10,11,14,16-octahydro-13H-cyclohepta[de]pyrano[3',4':6,7]indolizino[1,2-b]quinolin-1-yl)-2-hydroxyacetamide], in data set [1], the “Residual percentage (%)” value was 100.00%; the remaining at 1 h, 5 µM came out at 96.8%; the remaining at 2 h, 5 µM worked out at 92.1%; the remaining at 6 h, 5 µM was 94.5%. The remaining at 24 h, 5 µM in data set [1] was 88.8%. Besides, in data set [2], the remaining at 4 h, 5 µM is 93.4%.
In the case of “(S)-3-cyclopropyl-N-((1S,10S)-10-ethyl-6-fluoro-10-hydroxy-5-methyl-11,14-dioxo-1,2,3,4,10,11,14,16-octahydro-13H-cyclohepta[3',4':6,7]indolizino[1,2-b]quinolin-1-yl)-3-hydroxypropanamide [38-2]”, the IC50 was 5.4 nM in the data set on SK-BR-3, 5.7 nM in the data set on MDA-MB-468 and 2.9 nM in the data set on NCI-N87.
For the molecule “(S)-N-((1S,10S)-10-ethyl-6-fluoro-10-hydroxy-5-methyl-11,14-dioxo-1,2,3,4,10,11,14,16-octahydro-13H-cyclohepta[3',4':6,7]indolizino[1,2-b]quinolin-1-yl)-3-hydroxy-4-methylpentanamide [37-1]”, the IC50 with SK-BR-3 was found to be 19 nM; with MDA-MB-468, 19 nM; with NCI-N87, 8.6 nM.

The record behind these values is patent EP4692091A1, “CA[…], AND PHARMACEUTICAL COMPOSITION, PREPARATION METHOD THEREFOR AND USE THEREOF” (Changchun Genescience Pharmaceutical Co., Ltd., priority 2023, dated 2024).
